Results published in US6413974B1, “6,9,-disubstituted 2-[trans-(4-aminocyclohexyl) amino] purines” (Aventis Pharmaceuticals Inc., priority 1998, dated 2002).
Values joined by “and” are separate entries in the source; they are usually repeats but may differ in a detail not shown here. Equal entries are not always repeated. Structures can show the parent of a compound that is named as a salt. Where two headings read alike, the source gives them in different places.

Legend:
DU 145 = test: In vitro tumor cell proliferation, DU 145; type: cell-based, human; conditions: read-out: In vitro Tumor Cell Proliferation (IC50, μM) Prostate DUI45
Outline: (§1)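 SRB read-out: 3-day drug exposure, medium and drug renewed, 4 further days, TCA fixation at 4° C, 0.4% SRB stain. CyQUANT alternative: 3-day drug exposure, then plates frozen at −80° C ≥30 min. Cells plated overnight at 37° C before dosing.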

Colo-205 = test: In vitro tumor cell proliferation, Colo-205; type: cell-based, human; conditions: read-out: In vitro Tumor Cell Proliferation (IC50, μM) Colon Colo-205
Outline: as §1

DMS-114 = test: In vitro tumor cell proliferation, DMS-114; type: cell-based, human; conditions: read-out: In vitro Tumor Cell Proliferation (IC50, μM) Lung DMS-114
Outline: as §1

HT-29 = test: In vitro tumor cell proliferation, HT-29; type: cell-based, human; conditions: read-out: In vitro Tumor Cell Proliferation (IC50, μM) Colon HT-29 (converted)
Outline: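 HT-29 human colon adenocarcinoma cells plated overnight at 37° C., then exposed to drug for 3 days, medium with fresh drug replaced for a further 4 days. Cells fixed with 10% TCA and stained with 0.4% sulforhodamine B; alternatively, CyQUANT read after 3 days of drug exposure.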

A549 = test: In vitro tumor cell proliferation, A549; type: cell-based, human; conditions: read-out: In vitro Tumor Cell Proliferation (IC50, μM) Lung A549
Outline: as §1

MDA-MB-435 = test: In vitro tumor cell proliferation, MDA-MB-435; type: cell-based, human; conditions: read-out: In vitro Tumor Cell Proliferation (IC50, μM) Breast MDA-MB-435
Outline: as §1

cdk2/cyclin E = target: T1, cdk2/cyclin E (Homo sapiens, UniProt P24941); test: Cyclin-Dependent Kinase 2 Assay (cdk-2 inhibition); type: biochemical; conditions: GST-Rb substrate, 30 min at 30° C.
T1 construct: made in house; host or cells: insect cells (baculovirus co-infection)
Outline: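 GST-Rb bound to glutathione-Sepharose beads (0.5 μg/well) as substrate in 50 mM HEPES pH 7.5, 10 mM MgCl2, 1 mM EGTA. Recombinant cdk2/cyclin E at 0.1 μg per 100 μl, 30 min at 30 °C. Reaction stopped by filtration, TNEN washes, scintillation counting.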

MDA-MB-231 = test: In vitro tumor cell proliferation, MDA-MB-231; type: cell-based, human; conditions: read-out: In vitro Tumor Cell Proliferation (IC50, μM) Breast MDA-MB-231
Outline: as §1

PC-3 = test: In vitro tumor cell proliferation, PC-3; type: cell-based, human; conditions: read-out: In vitro Tumor Cell Proliferation (IC50, μM) Prostate PC-3
Outline: as §1

cdk4/cyclin D1 = target: T2, cdk4/cyclin D1 (Homo sapiens, UniProt P11802); test: Cyclin-dependent kinase 4 Assay; type: biochemical; conditions: cdk4/cyclin D1, GST-Rb substrate, 10 μM ATP, 30 min at 37° C.; read-out: CDK4 Inhibition IC50
T2 construct: made in house; host or cells: Sf9 insect cells (Bac-to-Bac baculovirus, pFastBac)
Outline: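 Insect-cell lysate of coexpressed human cdk4/cyclin D1 (0.1 μg) phosphorylated bead-bound GST-Rb (0.5 μg) in 50 mM HEPES pH 7.5, 10 mM MgCl2, 1 mM EGTA for 30 min at 37 °C. Filters were washed with TNEN and scintillation-counted; IC50 values derived.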

[1] = Homo sapiens, DU-145, values marked * (mark not explained)
[2] = Homo sapiens, COLO 205, values marked * (mark not explained)
[3] = values marked * (mark not explained), dihydrochloride
[4] = Homo sapiens, DMS-114, values marked * (mark not explained)
[5] = Homo sapiens, HT-29, values marked * (mark not explained)
[6] = Homo sapiens, A549, values marked * (mark not explained)
[7] = Homo sapiens, MDA-MB-435, values marked * (mark not explained)
[8] = Homo sapiens, MDA-MB-231, values marked * (mark not explained)
[9] = Homo sapiens, PC-3, values marked * (mark not explained)

T2 sequence (P11802 whole entry): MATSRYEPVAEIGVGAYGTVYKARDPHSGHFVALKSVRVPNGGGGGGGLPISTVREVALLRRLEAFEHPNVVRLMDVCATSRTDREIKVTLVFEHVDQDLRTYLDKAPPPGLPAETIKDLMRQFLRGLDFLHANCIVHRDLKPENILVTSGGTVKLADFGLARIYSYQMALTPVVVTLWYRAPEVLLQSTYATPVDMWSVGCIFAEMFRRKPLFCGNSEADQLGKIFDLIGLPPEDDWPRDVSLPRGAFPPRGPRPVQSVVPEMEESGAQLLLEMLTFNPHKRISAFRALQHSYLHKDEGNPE
T2 sequence (P24385 whole entry partner): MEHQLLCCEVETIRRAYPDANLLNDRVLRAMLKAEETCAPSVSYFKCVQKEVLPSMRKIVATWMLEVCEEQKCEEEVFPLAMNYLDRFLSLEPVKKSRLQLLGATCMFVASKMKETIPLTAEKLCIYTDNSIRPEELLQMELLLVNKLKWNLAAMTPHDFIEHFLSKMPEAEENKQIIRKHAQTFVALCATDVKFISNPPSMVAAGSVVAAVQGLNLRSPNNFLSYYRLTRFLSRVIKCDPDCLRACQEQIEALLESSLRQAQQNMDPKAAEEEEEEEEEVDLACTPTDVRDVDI

Compound | IC50 (DU 145; [1]) [µM] | IC50 (Colo-205; [2]) [µM] | IC50 (Colo-205; [3]) [µM] | IC50 (DMS-114; [4]) [µM] | IC50 (DMS-114; [3]) [µM] | IC50 (HT-29; [5]) [µM] | IC50 (HT-29; [3]) [µM] | IC50 (A549; [6]) [µM] | IC50 (A549; [3]) [µM] | IC50 (MDA-MB-435; [7]) [µM] | IC50 (MDA-MB-435; [3]) [µM] | IC50 (cdk2/cyclin E) | IC50 (MDA-MB-231; [8]) [µM] | IC50 (MDA-MB-231; [3]) [µM] | IC50 (PC-3; [9]) [µM] | IC50 (cdk4/cyclin D1) | IC50 (DU 145; [3]) [µM] | IC50 (PC-3; [3]) [µM]
N[C@H]1CC[C@H](Nc2nc(NCc3cccs3)c3ncn(C4CCCC4)c3n2)CC1 [Example 17, 2-[Trans-(4-aminocyclohexyl)amino]-6-(2-thiophenemethylamino)-9-cyclopentylpurine dihydrochloride] | 1.6 | 2.2 | 3 | 1.9 | 1.7 | 2.4 | 2.6 | 1.8 | 1.6 | 3.2 | 3.7 | 0.069 µM and 0.046 µM | 2.4 | 3 | 1.7 | 0.3 µM and 0.5 µM | – | –
CCCCCCCCNc1nc(N[C@H]2CC[C@H](N)CC2)nc2c1ncn2C1CCCC1 [Example 20, 2-[Trans-(4-aminocyclohexyl)amino]-6-(octylamino)-9-cyclopentylpurine dihydrochloride] | 2.4 | 1.9 | 1.4 | 1.1 | 0.95 | 1.9 | 1.7 | 1.7 | 1 | 2.3 | 1.8 | 0.33 µM and 0.31 µM and 0.46 µM | 2.7 | 1.9 | 1.7 | 2.4 µM | 1.9 | 1.8
N[C@H]1CC[C@H](Nc2nc(NCCCCc3ccccc3)c3ncn(C4CCCC4)c3n2)CC1 [Example 21, 2-[Trans-(4-aminocyclohexyl)amino]-6-(4-phenylbutylamino)-9-cyclopentylpurine dihydrochloride] | 0.4 | 0.51 | 0.78 | 0.7 | 0.6 | 0.7 | 0.8 | 0.5 | – | 1.3 | 1.2 | 0.039 µM and 0.091 µM | 0.8 | 0.9 | 0.6 | 1 µM | 0.7 | 0.8
N[C@H]1CC[C@H](Nc2nc(NCCCCCO)c3ncn(C4CCCC4)c3n2)CC1 [Example 25, 2-[Trans-(4-aminocyclohexyl)amino]-6-[5-(hydroxy)pentylamino]-9-cyclopentylpurine dihydrochloride] | 3.9 | 2.4 | 2.3 | 6.6 | 4.5 | 5.6 | 6.2 | 6.1 | 5.5 | 6 | – | 0.021 µM | 3.4 | 5.4 | 1.8 | 0.11 µM | 4.6 | 2.3
N[C@H]1CC[C@H](Nc2nc(NNCCc3ccccc3)c3ncn(C4CCCC4)c3n2)CC1 [Example 35, 2-[Trans-(4-aminocyclohexyl)amino]-6-[2-phenethylhydrazino]-9-cyclopentylpurine dihydrochloride] | 3.7 | 3.4 | 3.2 | 3 | 2.7 | 5.6 | 5.4 | 2.7 | 2.5 | 9.5 | 8 | 0.253 µM | 4.2 | 5.6 | 3 | 2.2 µM and 1.6 µM | 3.2 | 4.4
CCCCNc1nc(N[C@H]2CC[C@H](N)CC2)nc2c1ncn2C(C)C [Example 37, 2-[Trans-(4-aminocyclohexyl)amino]-6-[(butyl)amino]-9-(2-propyl)purine dihydrochloride] | > 20 | – | 11 | 9.7 | 8 | 19 | – | – | 8.3 | 19 | 16 | 0.24 µM | 24 | – | 11 | 7 µM | 10 | –
CCCCCCNc1nc(N[C@H]2CC[C@H](N)CC2)nc2c1ncn2C1CCCC1 [Example 41, 2-[Trans-(4-aminocyclohexyl)amino]-6-(hexylamino)-9-cyclopentylpurine dihydrochloride] | 1.1 | 1.7 | – | 0.9 | – | 1.6 | – | 1.1 | – | 2.6 | – | 0.2 µM | 1.7 | – | 1.5 | 0.82 µM and 1.9 µM | – | –
CCCNc1nc(N[C@H]2CC[C@H](N)CC2)nc2c1ncn2C1CCCC1 [Example 44, 2-[Trans-(4-aminocyclohexyl)amino]-6-(propylamino)-9-cyclopentylpurine dihydrochloride] | 0.5 | 0.58 | 0.4 | 0.44 | 0.53 | 0.69 | 0.65 | 0.63 | 0.47 | 0.85 | – | 0.009 µM and 0.011 µM | 0.8 | 0.6 | 0.52 | 0.25 µM and 0.37 µM and 0.16 µM | 0.6 | 0.47
N[C@H]1CC[C@H](Nc2nc(NCCc3ccc(O)cc3)c3ncn(C4CCCC4)c3n2)CC1 [Example 55, 2-[Trans-(4-aminocyclohexyl)amino]-6-[(4-hydroxyphenyl)ethylamino]-9-cyclopentylpurine. dihydrochloride] | 6.7 | 4.3 | 4.2 | 7 | 4.8 | 7 | 6.1 | 7.3 | 6.4 | 6.7 | 7.2 | 0.089 µM | 5.2 | 5.6 | 4.2 | 2.1 µM and 1.1 µM and 0.7 µM | 7.2 | 4
